Patent US12202835B2, “Substituted aromatic ring-linked dioxinoquinazolines and dioxinoquinolines as kinase inhibitors” (BEIJING SCITECH-MQ PHARMACEUTICALS LIMITED, priority 2018, dated 2025)

Legend:
EBC1 cells = assay: Assay for inhibiting the proliferation of EBC1 cells (CCK-8); format: cell-based; conditions: Homo sapiens, EBC-1
How it was run: (§1)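 Cells seeded in 96-well plates overnight, then exposed 72 h to 9 three-fold dilutions of compound (0.25% DMSO final). Viability by CCK-8 (1-2 h at 37° C., OD 450 nm), survival normalized to untreated and cell-free blanks; IC50 by curve fitting.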

Ba/F3-AXL cells = assay: Assay for inhibiting the proliferation of Ba/F3-AXL cells (CCK-8); format: cell-based; conditions: 72 hours of incubation, medium with 100 ng/mL hGas6, CCK-8
Experimental: The values were then imported into Graphpad Prism 5 software for curve fitting, and IC50 was calculated.

MHCC97H cells = assay: Assay for inhibiting the proliferation of MHCC97H cells (CCK-8); format: cell-based; conditions: Homo sapiens
How it was run: as §1

TRKA kinase = TRKA kinase (Homo sapiens (Human), UniProt P04629); assay: Assay of small molecular compounds for inhibiting the activity of TRKA kinase (LANCE TR-FRET); format: biochemical
TRKA kinase, sequence (P04629 33-796): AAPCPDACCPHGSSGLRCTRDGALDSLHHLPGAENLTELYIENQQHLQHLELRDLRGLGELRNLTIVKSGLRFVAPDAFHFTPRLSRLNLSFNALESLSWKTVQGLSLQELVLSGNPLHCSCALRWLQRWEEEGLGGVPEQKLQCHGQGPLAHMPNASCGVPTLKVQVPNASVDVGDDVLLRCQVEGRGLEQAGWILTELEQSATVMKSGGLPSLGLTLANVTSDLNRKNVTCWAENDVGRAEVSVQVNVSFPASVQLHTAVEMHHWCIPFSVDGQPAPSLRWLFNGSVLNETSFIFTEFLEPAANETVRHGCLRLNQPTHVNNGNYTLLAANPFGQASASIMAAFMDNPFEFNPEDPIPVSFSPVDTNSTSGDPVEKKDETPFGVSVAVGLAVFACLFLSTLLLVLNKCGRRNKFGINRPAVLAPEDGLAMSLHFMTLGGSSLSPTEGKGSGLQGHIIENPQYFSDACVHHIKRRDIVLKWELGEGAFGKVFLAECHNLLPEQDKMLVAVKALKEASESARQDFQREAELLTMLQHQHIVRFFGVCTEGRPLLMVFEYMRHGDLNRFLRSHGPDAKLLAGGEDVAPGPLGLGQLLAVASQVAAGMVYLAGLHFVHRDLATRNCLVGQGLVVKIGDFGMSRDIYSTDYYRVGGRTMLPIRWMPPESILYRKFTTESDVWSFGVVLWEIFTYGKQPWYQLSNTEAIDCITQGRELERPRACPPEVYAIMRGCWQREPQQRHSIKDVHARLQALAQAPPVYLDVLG
How it was run: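 LANCE TR-FRET with ULight-TK peptide; compounds pre-incubated 5 min with TRKA (2× solution 2 nM), then substrate/ATP added (4× mix: 400 nM peptide, 40 μM ATP). Reaction 60 min at room temperature in dark, 1% DMSO final; stopped, detection developed 60 min, signal read.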

Ba/F3 LMNA-NTRK1 cells = assay: Assay for inhibiting the proliferation of Ba/F3 LMNA-NTRK1 cells (CCK-8); format: cell-based; conditions: Mus musculus, BaF3
How it was run: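 Cells were seeded and cultured overnight, then treated with graded compound concentrations (final DMSO 0.25%) for 72 h. CCK-8 was added for 1–2 h at 37 °C and OD450 read. Survival was normalised to untreated and cell-free blank wells, and IC50 was fitted.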

IC50 (Ba/F3-AXL cells): < 50 nM | IC50 (TRKA kinase): < 50 nM | IC50 (Ba/F3 LMNA-NTRK1 cells): 50 to 200 nM
Structure (SMILES): CCOc1ccn(-c2ccc(F)cc2)c(=O)c1C(=O)Nc1ccc(Oc2ccnc3cc(OC4CCOCC4)c4c(c23)OCCO4)c(F)c1 [Example 66, N-(4-((5-((tetrahydropyran-4-yl)oxy)-2,3-dihydro-[1,4]dioxino[2,3-f]quinolin-10-yl)oxy)-3-fluorophenyl)-4-ethoxy-1-(4-fluorophenyl)-2-oxo-1,2-dihydropyridine-3-carboxamide]
IC50 (EBC1 cells): ≤ 50 nM | IC50 (MHCC97H cells): ≤ 50 nM
